We go through ten molecules from ChEMBL document CHEMBL1201862, “PubChem BioAssay data set” (2004).

Molecules are shown by their SMILES.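 Grown in 96-well plates, cells were treated for 48 hours with each compound at five concentrations. Insufficient inhibition: endpoint recorded as highest concentration tested. GI50 = concentration required for 50% inhibition of growth.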 Calls of active or inactive are those of the source. Rule as the data show it: active = GI50 up to about 1.1 µM and inactive = higher. Bounds are passed on as bounds.

Holding throughout (test): NCI-60 cell line screen, 48 h
Test [1] relates to U-251.
Test [2] concerns NCI/ADR-RES.
Test [3] relates to DU-145.
In test [4] the test system is Hs-578T.
Test [5] concerns HCT-15.
In test [6] the test system is OVCAR-4.
For test [7], the system named is HT-29.
The subject of test [8] is Malme-3M.
The test system of test [9] is LOX IMVI.
Test [10] deals with KM12.
Test [11] has as its system TK-10.
For test [12], the system named is RPMI-8226.
The test system of test [13] is HOP-92.
The subject of test [14] is UACC-62.
The test system of test [15] is PC-3.
Test [16] concerns SK-MEL-28.
The test system of test [17] is IGROV-1.
The test system of test [18] is SK-MEL-5.
The test system of test [19] is T47D.
The subject of test [20] is HL-60.

Turning to `COC(=O)[C@@H]1c2c(oc3cc(CO)cc(O)c3c2=O)C=C[C@H]1O`, the GI50 in test [1] is 10.5 µM (inactive); in test [2] it was 17.9 µM (inactive); in test [3], 3.24 µM (inactive); in test [4], 24.7 µM (inactive); in test [5], 2.7 µM; in test [6] it was 3.52 µM (inactive). The GI50 in [7] was 3.39 µM (inactive); in test [8], 1.74 µM (inactive); in test [9], 3.32 µM (inactive); in test [10] it was 3.71 µM (inactive); in test [11] it was 2.34 µM (inactive); in test [12], 2.49 µM (inactive). Moreover, the GI50 in test [13] is 8.63 µM (inactive); in [14] it was 12.3 µM (inactive); in test [15] it was 7.18 µM (inactive); in test [16] it was 4.16 µM (inactive); in test [17], 10.8 µM (inactive); in [18], 5.73 µM (inactive). For the same molecule, the GI50 in [19] is 2.7 µM (inactive); in test [20], 2.25 µM (inactive).

As to `N#CCN(Cc1ccccc1)[C@H]1CCC[C@]1(O)/C=C/c1ccc2c(c1)OCO2`, the GI50 in [1] was 19.2 µM (inactive); in test [2], 19.3 µM (inactive); in [3] it was 62.1 µM (inactive); in test [4], 17.2 µM (inactive); in test [5], 22.2 µM; in [6], 29 µM (inactive). Moreover, the GI50 in test [7] is 16 µM (inactive); in test [8], 17.6 µM (inactive); in test [9], 15.7 µM (inactive); in [10] it was 20 µM (inactive); in test [11], 42.9 µM (inactive); in test [12] it was 19.8 µM (inactive). The GI50 in test [13] was 18.2 µM (inactive); in [14], 16.1 µM (inactive); in test [15], 16.8 µM (inactive); in test [16] it was 17.3 µM (inactive); in [17], 23.1 µM (inactive); in [18], 16.5 µM (inactive). Moreover, the GI50 was 19.3 µM (inactive) in test [19] and 16.2 µM (inactive) in test [20].

In the case of `COc1cc(N(CCC#N)CCC#N)ccc1/C=C1\SC(=S)NC1=O`, the GI50 was > 100 µM (inactive) in test [1]; > 100 µM (inactive) in [2]; > 100 µM (inactive) in [3]; > 100 µM (inactive) in [4]; greater than 100 µM in [5]; > 100 µM (inactive) in test [6]. In addition, the GI50 in [7], in test [8], in test [9], in test [10], in [11] and in test [12] was > 100 µM (inactive) in each case. Moreover, the GI50 in test [13], in [14], in [15], in [16], in [17] and in test [18] was > 100 µM (inactive) each time. Besides, the GI50 in test [19] and in test [20] was > 100 µM (inactive) in each case.

As for `C=C(C=O)c1c2c(nc3ccccc13)C(=O)c1ccccc1C2=O`, the GI50 is 0.482 µM (active) in [1]; 0.265 µM (active) in test [2]; 0.286 µM (active) in test [3]; 0.617 µM (active) in test [4]; 0.298 µM in test [5]; 1.77 µM (inactive) in test [6]. The GI50 in [7] is 0.47 µM (active); in test [8], 1.42 µM (inactive); in test [9], 0.316 µM (active); in test [10], 1.22 µM (inactive); in test [11], 1.02 µM (active); in [12] it was 0.296 µM (active). In addition, the GI50 in test [13] was 1.67 µM (inactive); in [14], 0.918 µM (active); in test [15] it was 1.29 µM (inactive); in test [16] it was 0.684 µM (active); in [17], 0.252 µM (active); in [18], 0.162 µM (active). The GI50 in [19] was 0.646 µM (active); in test [20] it was 0.31 µM (active).

For `COc1cc(/C=C/c2ccc(/C=C/c3cc(OC)c(OC)c(OC)c3)cc2)cc(OC)c1OC`, the GI50 was 13.3 µM (inactive) in test [1]; 22.2 µM (inactive) in test [2]; 88.7 µM (inactive) in [3]; 18.9 µM (inactive) in test [4]; greater than 100 µM in [5]; 3.98 µM (inactive) in [6]. Moreover, the GI50 was 8.26 µM (inactive) in test [7]; 20.3 µM (inactive) in test [8]; 34.4 µM (inactive) in [9]; 29.5 µM (inactive) in [10]; 17.6 µM (inactive) in test [11]; 41.6 µM (inactive) in test [12]. Besides, the GI50 was 15.4 µM (inactive) in [13]; 7.89 µM (inactive) in test [14]; 27.5 µM (inactive) in test [15]; 26.1 µM (inactive) in [16]; 26.5 µM (inactive) in test [17]; 34.4 µM (inactive) in test [18]. For the same molecule, the GI50 is 3.39 µM (inactive) in test [19] and > 66.5 µM (inactive) in test [20].

For the molecule `O=C1C=CC2(O[C@H](C3CCCCC3)[C@@H](C3CCCCC3)O2)C(SC(=O)c2ccccc2)C1` (some centres undefined), the GI50 in test [1] was 1.91 µM (inactive); in test [2], 1.43 µM (inactive); in test [3], 2.44 µM (inactive); in test [4], 1.92 µM (inactive); in test [5], 3.21 µM; in test [6], 1.25 µM (inactive). The GI50 in [7] is 1.36 µM (inactive); in [8] it was 3.66 µM (inactive); in [9] it was 1.41 µM (inactive); in test [10] it was 6.98 µM (inactive); in test [11] it was 2.26 µM (inactive); in test [12], 0.968 µM (active). For the same molecule, the GI50 is 8.39 µM (inactive) in [13]; 2.48 µM (inactive) in test [14]; 2.23 µM (inactive) in test [15]; 0.347 µM (active) in [16]; 1.75 µM (inactive) in test [17]; 1.77 µM (inactive) in test [18]. Also, the GI50 is 0.975 µM (active) in test [19] and 1.79 µM (inactive) in test [20].

With `Cc1ccc(/C=C/C(=O)c2c([O-])on[n+]2-c2ccccc2)cc1`, the GI50 in test [1] was 2.79 µM (inactive); in test [2], 2.4 µM (inactive); in test [3] it was 2.74 µM (inactive); in test [4] it was 2.47 µM (inactive); in test [5], 1.98 µM; in [6] it was 3.1 µM (inactive). Besides, the GI50 in test [7] is 1.9 µM (inactive); in [8], 5.42 µM (inactive); in test [9], 1.88 µM (inactive); in test [10], 2.39 µM (inactive); in test [11] it was 2.95 µM (inactive); in [12], 2.57 µM (inactive). For the same molecule, the GI50 in test [13] is 4.52 µM (inactive); in test [14], 1.72 µM (inactive); in test [15] it was 4.72 µM (inactive); in test [16], 2.26 µM (inactive); in test [17] it was 2.73 µM (inactive); in [18] it was 3.71 µM (inactive). Further, the GI50 in test [19] was 2.84 µM (inactive); in [20], 1.47 µM (inactive).

In the case of `Cc1c(C)c(C)c(-n2c(=O)n(C)c(=O)n2-c2cc(C(C)(C)C)cc(C(C)(C)C)c2O)c(C)c1C`, the GI50 in [1] is 6.95 µM (inactive); in test [2] it was 8.38 µM (inactive); in test [3] it was 12.7 µM (inactive); in [4] it was 10.4 µM (inactive); in test [5] it was 8.43 µM; in test [6], 7.28 µM (inactive). For the same molecule, the GI50 is 3.64 µM (inactive) in test [7]; 11.9 µM (inactive) in test [8]; 13.6 µM (inactive) in test [9]; 11.8 µM (inactive) in test [10]; 10.1 µM (inactive) in [11]; 4.63 µM (inactive) in [12]. In addition, the GI50 is 5.5 µM (inactive) in test [13]; 11.1 µM (inactive) in test [14]; 3.03 µM (inactive) in [15]; 13.7 µM (inactive) in test [16]; 10.1 µM (inactive) in test [17]; 6.21 µM (inactive) in test [18]. In addition, the GI50 was 4.89 µM (inactive) in test [19] and 3.04 µM (inactive) in test [20].

For `O=C(c1c(F)c(F)c(F)c(F)c1F)c1c(F)c(F)c(F)c(F)c1F`, the GI50 was 0.951 µM (active) in test [1]; 3.13 µM (inactive) in test [2]; 1.96 µM (inactive) in test [3]; 2.69 µM (inactive) in test [4]; 1.55 µM in [5]; 1.75 µM (inactive) in [6]. In addition, the GI50 was 1.32 µM (inactive) in [7]; 1.52 µM (inactive) in test [8]; 0.71 µM (active) in test [9]; 0.535 µM (active) in test [10]; 1.19 µM (inactive) in [11]; 0.0528 µM (active) in [12]. Moreover, the GI50 was 1.83 µM (inactive) in [13]; 1.92 µM (inactive) in test [14]; 1.62 µM (inactive) in [15]; 2.88 µM (inactive) in test [16]; 1.3 µM (inactive) in test [17]; 2.82 µM (inactive) in test [18]. Further, the GI50 is 1.69 µM (inactive) in [19] and 0.48 µM (active) in test [20].

Take `O=C1CSC(c2cc3cc(Br)ccc3nc2Cl)N1c1ccc(Cl)cc1` (centres undefined): the GI50 was 20.5 µM (inactive) in test [2]; 34.4 µM (inactive) in test [3]; 35.9 µM (inactive) in [4]; 16.8 µM in test [5]; 23.2 µM (inactive) in test [6]; 32.9 µM (inactive) in test [7]. The GI50 in [8] was 25.7 µM (inactive); in [9] it was 16.1 µM (inactive); in test [10], 13 µM (inactive); in test [11], 29.6 µM (inactive); in [12], 25.4 µM (inactive); in test [13], 37.2 µM (inactive). Besides, the GI50 in test [14] was 5.87 µM (inactive); in test [15], 41.2 µM (inactive); in [16], 33.7 µM (inactive); in [17], 16.8 µM (inactive); in test [18] it was 14 µM (inactive); in [19], 21 µM (inactive). The GI50 in [20] was 20.7 µM (inactive).
